In ChEMBL document CHEMBL4602669, “Bishomoscalarane Sesterterpenoids from the Sponge Dysidea granulosa Collected in the South China Sea” (2020) one finds GI50 data, which are given here for eight compounds.

The subject of one assay is Bel-7402. Put plainly: Antiproliferative activity against human Bel7402 cells by MTT assay. The assay is classed as functional. For orientation: Tetrazolium dyes change colour on reduction, which living cells bring about.
On to `CCC(=O)O[C@@H](C)[C@@]1(C)CCC[C@@]2(C)[C@H]1CC[C@]1(C)[C@@H]2C[C@H](OC(=O)CC(O)CC)[C@]2(C)C3=C(CC[C@@H]12)[C@H](C)OC3=O` (stereo not given in full), for which the GI50 (in general, the concentration at which growth is held to half of that of the control) is more than 30 µM.

Consider `CC(=O)OC(C)CC(=O)O[C@H]1C[C@@H]2[C@@]3(C)CCC[C@](C)([C@H](C)OC(C)=O)[C@@H]3CC[C@@]2(C)[C@@H]2C[C@@H](O)C(C(C)=O)=C[C@@]12C` (stereo not given in full), for which the GI50 is more than 30 µM.

`CC(=O)O[C@H]1C[C@@H]2[C@@]3(C)CCC[C@@]4(C[C@@H]4C)[C@@H]3CC[C@@]2(C)[C@@H]2CCC3=C(C(=O)O[C@H]3C)[C@@]12C` returned a GI50 of more than 30 µM.

In turn, `CCC(=O)O[C@@H](C)[C@@]1(C)CCC[C@@]2(C)[C@H]1CC[C@]1(C)[C@@H]2C[C@H](OC(=O)CC(O)CC)[C@]2(C)C3=C(CC[C@@H]12)[C@@H](C)OC3=O` (stereo not given in full) showed a GI50 of more than 30 µM.

Turning to `CC(=O)O[C@@H](C)[C@@]1(C)CCC[C@@]2(C)[C@H]1CC[C@]1(C)[C@@H]2C[C@H](OC(=O)CC(C)O)[C@]2(C)C=C(C(C)=O)[C@H](O)C[C@H]21` (stereo not given in full), the GI50 was more than 30 µM.

In turn, `CCC(O)CC(=O)O[C@H]1C[C@@H]2[C@@]3(C)CCC[C@](C)([C@H](C)OC(C)=O)[C@@H]3CC[C@@]2(C)[C@@H]2C[C@H](O)C(C(C)=O)=C[C@@]12C` (stereo not given in full) gave a 50% growth inhibitory concentration (GI50) of more than 30 µM.

In turn, `CC(O)CC(=O)O[C@H]1C[C@@H]2[C@@]3(C)CCC[C@@]4(C[C@@H]4C)[C@@H]3CC[C@@]2(C)[C@@H]2C[C@@H](O)C3=C([C@H](O)CC3=O)[C@@]12C` (stereo not given in full) displayed a GI50 of more than 30 µM.

On to `COc1cccc2c1C(=O)c1c(O)c3c(c(O)c1C2=O)C[C@@](O)(C(=O)CO)C[C@@H]3O[C@H]1C[C@H](N)[C@H](O)[C@H](C)O1` [DOXORUBICIN], for which the concentration for 50% growth inhibition (GI50) is less than 1 µM.

In the next assay the test system is K562. Put plainly: Antiproliferative activity against human K562 cells by MTT assay. The assay is classed as functional.
`CCC(=O)O[C@@H](C)[C@@]1(C)CCC[C@@]2(C)[C@H]1CC[C@]1(C)[C@@H]2C[C@H](OC(=O)CC(O)CC)[C@]2(C)C3=C(CC[C@@H]12)[C@H](C)OC3=O` (stereo not given in full): the GI50 was more than 30 µM.

Compound `CC(=O)OC(C)CC(=O)O[C@H]1C[C@@H]2[C@@]3(C)CCC[C@](C)([C@H](C)OC(C)=O)[C@@H]3CC[C@@]2(C)[C@@H]2C[C@@H](O)C(C(C)=O)=C[C@@]12C` (stereo not given in full) returned a GI50 of more than 30 µM.

In the case of `CC(=O)O[C@H]1C[C@@H]2[C@@]3(C)CCC[C@@]4(C[C@@H]4C)[C@@H]3CC[C@@]2(C)[C@@H]2CCC3=C(C(=O)O[C@H]3C)[C@@]12C`, the GI50 was more than 30 µM.

As to `CCC(=O)O[C@@H](C)[C@@]1(C)CCC[C@@]2(C)[C@H]1CC[C@]1(C)[C@@H]2C[C@H](OC(=O)CC(O)CC)[C@]2(C)C3=C(CC[C@@H]12)[C@@H](C)OC3=O` (stereo not given in full), the GI50 was more than 30 µM.

In turn, `CC(=O)O[C@@H](C)[C@@]1(C)CCC[C@@]2(C)[C@H]1CC[C@]1(C)[C@@H]2C[C@H](OC(=O)CC(C)O)[C@]2(C)C=C(C(C)=O)[C@H](O)C[C@H]21` (stereo not given in full) came in with a GI50 of more than 30 µM.

Compound `CCC(O)CC(=O)O[C@H]1C[C@@H]2[C@@]3(C)CCC[C@](C)([C@H](C)OC(C)=O)[C@@H]3CC[C@@]2(C)[C@@H]2C[C@H](O)C(C(C)=O)=C[C@@]12C` (stereo not given in full) gave a GI50 of more than 30 µM.

Turning to `CC(O)CC(=O)O[C@H]1C[C@@H]2[C@@]3(C)CCC[C@@]4(C[C@@H]4C)[C@@H]3CC[C@@]2(C)[C@@H]2C[C@@H](O)C3=C([C@H](O)CC3=O)[C@@]12C` (stereo not given in full), the GI50 is more than 30 µM.

For `COc1cccc2c1C(=O)c1c(O)c3c(c(O)c1C2=O)C[C@@](O)(C(=O)CO)C[C@@H]3O[C@H]1C[C@H](N)[C@H](O)[C@H](C)O1` [DOXORUBICIN], the GI50 is less than 1 µM.

A further assay deals with HCT-116. Put plainly: Antiproliferative activity against human HCT116 cells by MTT assay. The assay is classed as functional.
For `CCC(=O)O[C@@H](C)[C@@]1(C)CCC[C@@]2(C)[C@H]1CC[C@]1(C)[C@@H]2C[C@H](OC(=O)CC(O)CC)[C@]2(C)C3=C(CC[C@@H]12)[C@H](C)OC3=O` (stereo not given in full), the concentration for 50% growth inhibition (GI50) is more than 30 µM.

Turning to `CC(=O)OC(C)CC(=O)O[C@H]1C[C@@H]2[C@@]3(C)CCC[C@](C)([C@H](C)OC(C)=O)[C@@H]3CC[C@@]2(C)[C@@H]2C[C@@H](O)C(C(C)=O)=C[C@@]12C` (stereo not given in full), the concentration for 50% growth inhibition (GI50) is more than 30 µM.

`CC(=O)O[C@H]1C[C@@H]2[C@@]3(C)CCC[C@@]4(C[C@@H]4C)[C@@H]3CC[C@@]2(C)[C@@H]2CCC3=C(C(=O)O[C@H]3C)[C@@]12C` registered a concentration for 50% growth inhibition (GI50) of more than 30 µM.

Turning to `CCC(=O)O[C@@H](C)[C@@]1(C)CCC[C@@]2(C)[C@H]1CC[C@]1(C)[C@@H]2C[C@H](OC(=O)CC(O)CC)[C@]2(C)C3=C(CC[C@@H]12)[C@@H](C)OC3=O` (stereo not given in full), the concentration for 50% growth inhibition (GI50) was more than 30 µM.

`CC(=O)O[C@@H](C)[C@@]1(C)CCC[C@@]2(C)[C@H]1CC[C@]1(C)[C@@H]2C[C@H](OC(=O)CC(C)O)[C@]2(C)C=C(C(C)=O)[C@H](O)C[C@H]21` (stereo not given in full) yielded a GI50 of more than 30 µM.

`CCC(O)CC(=O)O[C@H]1C[C@@H]2[C@@]3(C)CCC[C@](C)([C@H](C)OC(C)=O)[C@@H]3CC[C@@]2(C)[C@@H]2C[C@H](O)C(C(C)=O)=C[C@@]12C` (stereo not given in full) displayed a concentration for 50% growth inhibition (GI50) of more than 30 µM.

In the case of `CC(O)CC(=O)O[C@H]1C[C@@H]2[C@@]3(C)CCC[C@@]4(C[C@@H]4C)[C@@H]3CC[C@@]2(C)[C@@H]2C[C@@H](O)C3=C([C@H](O)CC3=O)[C@@]12C` (stereo not given in full), the GI50 is more than 30 µM.

As for `COc1cccc2c1C(=O)c1c(O)c3c(c(O)c1C2=O)C[C@@](O)(C(=O)CO)C[C@@H]3O[C@H]1C[C@H](N)[C@H](O)[C@H](C)O1` [DOXORUBICIN], the GI50 is less than 1 µM.

A further assay relates to Jurkat. Put plainly: Antiproliferative activity against human Jurkat cells by MTT assay. The assay is classed as functional.
In the case of `CCC(=O)O[C@@H](C)[C@@]1(C)CCC[C@@]2(C)[C@H]1CC[C@]1(C)[C@@H]2C[C@H](OC(=O)CC(O)CC)[C@]2(C)C3=C(CC[C@@H]12)[C@H](C)OC3=O` (stereo not given in full), the GI50 was more than 30 µM.

Regarding `CC(=O)OC(C)CC(=O)O[C@H]1C[C@@H]2[C@@]3(C)CCC[C@](C)([C@H](C)OC(C)=O)[C@@H]3CC[C@@]2(C)[C@@H]2C[C@@H](O)C(C(C)=O)=C[C@@]12C` (stereo not given in full), the GI50 is more than 30 µM.

Take `CC(=O)O[C@H]1C[C@@H]2[C@@]3(C)CCC[C@@]4(C[C@@H]4C)[C@@H]3CC[C@@]2(C)[C@@H]2CCC3=C(C(=O)O[C@H]3C)[C@@]12C`: the GI50 was more than 30 µM.

`CCC(=O)O[C@@H](C)[C@@]1(C)CCC[C@@]2(C)[C@H]1CC[C@]1(C)[C@@H]2C[C@H](OC(=O)CC(O)CC)[C@]2(C)C3=C(CC[C@@H]12)[C@@H](C)OC3=O` (stereo not given in full) displayed a GI50 of more than 30 µM.

In the case of `CC(=O)O[C@@H](C)[C@@]1(C)CCC[C@@]2(C)[C@H]1CC[C@]1(C)[C@@H]2C[C@H](OC(=O)CC(C)O)[C@]2(C)C=C(C(C)=O)[C@H](O)C[C@H]21` (stereo not given in full), the GI50 is more than 30 µM.

Turning to `CCC(O)CC(=O)O[C@H]1C[C@@H]2[C@@]3(C)CCC[C@](C)([C@H](C)OC(C)=O)[C@@H]3CC[C@@]2(C)[C@@H]2C[C@H](O)C(C(C)=O)=C[C@@]12C` (stereo not given in full), the GI50 was more than 30 µM.

Consider `CC(O)CC(=O)O[C@H]1C[C@@H]2[C@@]3(C)CCC[C@@]4(C[C@@H]4C)[C@@H]3CC[C@@]2(C)[C@@H]2C[C@@H](O)C3=C([C@H](O)CC3=O)[C@@]12C` (stereo not given in full), for which the concentration for 50% growth inhibition (GI50) is more than 30 µM.

`COc1cccc2c1C(=O)c1c(O)c3c(c(O)c1C2=O)C[C@@](O)(C(=O)CO)C[C@@H]3O[C@H]1C[C@H](N)[C@H](O)[C@H](C)O1` [DOXORUBICIN] gave a GI50 of less than 1 µM.

Another assay deals with A549. The experiment in a line: Antiproliferative activity against human A549 cells by MTT assay. The assay is classed as functional.
`CCC(=O)O[C@@H](C)[C@@]1(C)CCC[C@@]2(C)[C@H]1CC[C@]1(C)[C@@H]2C[C@H](OC(=O)CC(O)CC)[C@]2(C)C3=C(CC[C@@H]12)[C@H](C)OC3=O` (stereo not given in full) registered a concentration for 50% growth inhibition (GI50) of more than 30 µM.

The compound `CC(=O)OC(C)CC(=O)O[C@H]1C[C@@H]2[C@@]3(C)CCC[C@](C)([C@H](C)OC(C)=O)[C@@H]3CC[C@@]2(C)[C@@H]2C[C@@H](O)C(C(C)=O)=C[C@@]12C` (stereo not given in full) showed a 50% growth inhibitory concentration (GI50) of more than 30 µM.

In the case of `CC(=O)O[C@H]1C[C@@H]2[C@@]3(C)CCC[C@@]4(C[C@@H]4C)[C@@H]3CC[C@@]2(C)[C@@H]2CCC3=C(C(=O)O[C@H]3C)[C@@]12C`, the GI50 is more than 30 µM.

`CCC(=O)O[C@@H](C)[C@@]1(C)CCC[C@@]2(C)[C@H]1CC[C@]1(C)[C@@H]2C[C@H](OC(=O)CC(O)CC)[C@]2(C)C3=C(CC[C@@H]12)[C@@H](C)OC3=O` (stereo not given in full) came in with a GI50 of more than 30 µM.

In turn, `CC(=O)O[C@@H](C)[C@@]1(C)CCC[C@@]2(C)[C@H]1CC[C@]1(C)[C@@H]2C[C@H](OC(=O)CC(C)O)[C@]2(C)C=C(C(C)=O)[C@H](O)C[C@H]21` (stereo not given in full) came in with a GI50 of more than 30 µM.

`CCC(O)CC(=O)O[C@H]1C[C@@H]2[C@@]3(C)CCC[C@](C)([C@H](C)OC(C)=O)[C@@H]3CC[C@@]2(C)[C@@H]2C[C@H](O)C(C(C)=O)=C[C@@]12C` (stereo not given in full) came in with a GI50 of more than 30 µM.

As to `CC(O)CC(=O)O[C@H]1C[C@@H]2[C@@]3(C)CCC[C@@]4(C[C@@H]4C)[C@@H]3CC[C@@]2(C)[C@@H]2C[C@@H](O)C3=C([C@H](O)CC3=O)[C@@]12C` (stereo not given in full), the concentration for 50% growth inhibition (GI50) was more than 30 µM.

`COc1cccc2c1C(=O)c1c(O)c3c(c(O)c1C2=O)C[C@@](O)(C(=O)CO)C[C@@H]3O[C@H]1C[C@H](N)[C@H](O)[C@H](C)O1` [DOXORUBICIN]: the 50% growth inhibitory concentration (GI50) was less than 1 µM.
